Data published in patent publication US10221161B2, “Inhibitors of plasma kallikrein” (Kalvista Pharmaceuticals Limited, priority 2013, dated 2019).

How the values were obtained:
[1] = molecular target: Human plasma kallikrein (Homo sapiens (Human), UniProt P03952); assay: Determination of the IC50 for plasma kallikrein (fluorogenic substrate H-DPro-Phe-Arg-AFC); format: biochemical; settings: 37° C., read-out: IC50 (human PKal)
Procedure: Determination of the IC50 Plasma Kallikrein Plasma kallikrein inhibitory activity in vitro was determined using standard published methods (see e.g. Johansen et al., Int. J. Tiss. […] Shori et al., Biochem. Pharmacol., 1992, 43, 1209; Stürzebecher et al., Biol. Chem. Hoppe-Seyler, 1992, 373, 1025). Human plasma kallikrein (Protogen) was incubated at 37° C. with the fluorogenic substrate […] and various concentrations of the test compound.

[2] = molecular target: Human KLK1 (Homo sapiens (Human), UniProt P06870); assay: Determination of the IC50 for KLK1 (fluorogenic substrate H-DVal-Leu-Arg-AFC); format: biochemical; settings: human KLK1, 37° C.
Procedure: Selected compounds were further screened for inhibitory activity against the related enzyme KLK1. The ability of the compounds of formula (I) to inhibit KLK1 may be determined using the following biological assay:
Determination of the IC50 for KLK1
KLK1 inhibitory activity in vitro was determined using standard published methods (see e.g. Johansen et al., Int. J. Tiss. Reac. 1986, 8, 185; Shori et al., Biochem. Pharmacol., 1992, 43, 1209; Stürzebecher et al., Biol. Chem. Hoppe-Seyler, 1992, 373, 1025). Human KLK1 (Callbiochem) was incubated at 37° C. with the fluorogenic substrate H-DVal-Leu-Arg-AFC and various concentrations of the test compound. Residual enzyme activity (initial rate of reaction) was determined by measuring the change in optical absorbance at 410 nm and the IC50 value for the test compound was determined.

Chain of Human KLK1 (P06870 25-262): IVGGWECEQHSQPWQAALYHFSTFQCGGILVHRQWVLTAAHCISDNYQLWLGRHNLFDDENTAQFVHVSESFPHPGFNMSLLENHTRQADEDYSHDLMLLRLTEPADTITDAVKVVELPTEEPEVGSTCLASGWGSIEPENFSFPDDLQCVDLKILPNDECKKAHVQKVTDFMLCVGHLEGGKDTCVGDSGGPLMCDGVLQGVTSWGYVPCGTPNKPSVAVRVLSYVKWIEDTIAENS
Chain of Human plasma kallikrein (P03952 391-638 limits assumed): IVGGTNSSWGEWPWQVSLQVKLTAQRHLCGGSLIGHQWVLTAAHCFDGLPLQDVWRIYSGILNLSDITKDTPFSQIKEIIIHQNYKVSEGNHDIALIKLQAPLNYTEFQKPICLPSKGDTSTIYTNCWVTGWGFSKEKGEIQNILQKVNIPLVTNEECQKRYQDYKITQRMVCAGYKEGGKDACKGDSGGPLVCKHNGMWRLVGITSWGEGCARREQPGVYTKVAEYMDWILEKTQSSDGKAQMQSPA
Chain of Human plasma kallikrein (P03952 20-390 partner limits assumed): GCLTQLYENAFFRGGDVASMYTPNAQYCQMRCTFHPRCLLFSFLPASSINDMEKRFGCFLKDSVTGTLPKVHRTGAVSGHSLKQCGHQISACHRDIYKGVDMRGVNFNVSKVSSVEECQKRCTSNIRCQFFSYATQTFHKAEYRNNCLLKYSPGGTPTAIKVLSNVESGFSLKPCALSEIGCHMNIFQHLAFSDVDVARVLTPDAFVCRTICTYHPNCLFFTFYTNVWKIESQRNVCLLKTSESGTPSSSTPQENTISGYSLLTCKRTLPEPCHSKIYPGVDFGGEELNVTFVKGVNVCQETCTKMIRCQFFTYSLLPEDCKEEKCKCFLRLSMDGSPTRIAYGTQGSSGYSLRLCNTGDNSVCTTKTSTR

SMILES | IC50 [1] | IC50 [2]
Nc1nccc2cc(CNC(=O)c3cncc(CN4CCN(CCc5ccccc5)CC4)c3)ccc12 [Example 51, N-[(1-Aminoisoquinolin-6-yl)methyl]-5-{[4-(2-phenylethyl)piperazin-1-yl]methyl}pyridine-3-carboxamide] | 8.11 µM | > 10 µM
Nc1nccc2cc(CNC(=O)c3cncc(Cc4ccc(-n5cccn5)cc4)c3)ccc12 [Example 27, N-[(1-Aminoisoquinolin-6-yl)methyl]-5-{[4-(pyrazol-1-yl)phenyl]methyl}pyridine-3-carboxamide] | 1.01 µM | 12.1 µM
Nc1nccc2cc(CNC(=O)c3cncc(CN4CCN(CC5CCCC5)CC4)c3)ccc12 [Example 43, N-[(1-Aminoisoquinolin-6-yl)methyl]-5-{[4-(cyclopentylmethyl)piperazin-1-yl]methyl}pyridine-3-carboxamide] | 11 µM | 17.9 µM
CCN(CC)c1ccc(Cc2cncc(C(=O)NCc3ccc4c(N)nccc4c3)c2)cn1 [Example 66, N-[(1-Aminoisoquinolin-6-yl)methyl]-5-{[6-(diethylamino)pyridin-3-yl]methyl}pyridine-3-carboxamide] | 0.0527 µM | 5.85 µM
Nc1nccc2cc(CNC(=O)c3cncc(CN4CCN(S(=O)(=O)c5ccccc5)CC4)c3)ccc12 [Example 35, N-[(1-Aminoisoquinolin-6-yl)methyl]-5-{[4-(benzenesulfonyl)piperazin-1-yl]methyl}pyridine-3-carboxamide] | 3.51 µM | 29.8 µM
Cc1cnn(Cc2ccc(C(O)c3cncc(C(=O)NCc4ccc5c(N)nccc5c4)c3)cc2)c1 (stereo not shown) [Example 7, N-((1-Aminoisoquinolin-6-yl)methyl)-5-(hydroxy(4-((4-methyl-1H-pyrazol-1-yl)methyl)phenyl)methyl)nicotinamide] | 0.0353 µM | 8.02 µM
COc1ncc(C(=O)NCc2ccc3c(N)nccc3c2)cc1Cc1ccc2nc(C)ccc2c1 [Example 18, N-[(1-Aminoisoquinolin-6-yl)methyl]-6-methoxy-5-[(2-methylquinolin-6-yl)methyl]pyridine-3-carboxamide] | 0.702 µM | 1.74 µM
Nc1nccc2cc(CNC(=O)c3cncc(Cc4ccc(N5CCC(F)(F)C5)nc4)c3)ccc12 [Example 57, N-[(1-Aminoisoquinolin-6-yl)methyl]-5-{[6-(3,3-difluoropyrrolidin-1-yl)pyridin-3-yl]methyl}pyridine-3-carboxamide] | 0.24 µM | > 40 µM
Nc1nccc2cc(CNC(=O)c3cncc(Cc4ccc(F)nc4)c3)ccc12 [Example 54, N-[(1-Aminoisoquinolin-6-yl)methyl]-5-[(6-fluoropyridin-3-yl)methyl]pyridine-3-carboxamide] | 14.6 µM | 10.7 µM
Nc1nccc2cc(CNC(=O)c3cncc(Cc4ccc(N5CCCCC5)nc4)c3)ccc12 [Example 56, N-[(1-Aminoisoquinolin-6-yl)methyl]-5-{[6-(piperidin-1-yl)pyridin-3-yl]methyl}pyridine-3-carboxamide] | 0.313 µM | > 40 µM
Nc1nccc2cc(CNC(=O)c3cncc(CN4CCN(CCCc5ccccc5)CC4)c3)ccc12 [Example 50, N-[(1-Aminoisoquinolin-6-yl)methyl]-5-{[4-(3-phenylpropyl)piperazin-1-yl]methyl}pyridine-3-carboxamide] | 10 µM | > 10 µM
COc1ccc(Cc2cncc(C(=O)NCc3ccc4c(N)nccc4c3)c2)cc1 [Example 26, N-[(1-Aminoisoquinolin-6-yl)methyl]-5-[(4-methoxyphenyl)methyl]pyridine-3-carboxamide] | 0.941 µM | > 40 µM
Nc1nccc2cc(CNC(=O)c3cncc(Cc4csc(-c5ccccc5)n4)c3)ccc12 [Example 24, N-[(1-Aminoisoquinolin-6-yl)methyl]-5-[(2-phenyl-1,3-thiazol-4-yl)methyl]pyridine-3-carboxamide] | 1.71 µM | 4 µM
Nc1nccc2cc(CNC(=O)c3cncc(CN4CCN(Cc5ccc(F)cc5)CC4)c3)ccc12 [Example 48, N-[(1-Aminoisoquinolin-6-yl)methyl]-5-({4-[(4-fluorophenyl)methyl]piperazin-1-yl}methyl)pyridine-3-carboxamide] | 21.9 µM | > 40 µM
Nc1nccc2cc(CNC(=O)c3cncc(Cc4cccc(-n5cccn5)c4)c3)ccc12 [Example 30, N-[(1-Aminoisoquinolin-6-yl)methyl]-5-{[3-(pyrazol-1-yl)phenyl]methyl}pyridine-3-carboxamide] | 0.302 µM | 2.85 µM
Cc1cnn(Cc2ccc(Cc3cnnc(C(=O)NCc4ccc5c(N)nccc5c4)c3)cc2)c1 [Example 11, N-[(1-Aminoisoquinolin-6-yl)methyl]-5-({4-[(4-methylpyrazol-1-yl)methyl]phenyl}methyl)pyridazine-3-carboxamide] | 0.0823 µM | 37.1 µM
Nc1nccc2cc(CNC(=O)c3cncc(CN4CCN(C(=O)c5ccccc5)CC4)c3)ccc12 [Example 36, N-[(1-Aminoisoquinolin-6-yl)methyl]-5-[(4-benzoylpiperazin-1-yl)methyl]pyridine-3-carboxamide] | 6.65 µM | 23.8 µM
Cc1cnn(CCOCc2cncc(C(=O)NCc3ccc4c(N)nccc4c3)c2)c1 [Example 40, N-[(1-Aminoisoquinolin-6-yl)methyl]-5-{[2-(4-methylpyrazol-1-yl)ethoxy]methyl}pyridine-3-carboxamide] | 0.127 µM | 4.87 µM
Nc1nccc2cc(CNC(=O)c3cncc(Cc4ccc(N5CCC(CO)C5)nc4)c3)ccc12 (stereo not shown) [Example 71, N-[(1-Aminoisoquinolin-6-yl)methyl]-5-({6-[3-(hydroxymethyl)pyrrolidin-1-yl]pyridin-3-yl}methyl)pyridine-3-carboxamide] | 0.306 µM | 3.95 µM

Further lines, results first:

IC50 [1] | IC50 [2] | SMILES
0.0831 µM | > 10 µM | CC1(C)CCN(c2ccc(Cc3cncc(C(=O)NCc4ccc5c(N)nccc5c4)c3)cn2)C1 [Example 74, N-[(1-Aminoisoquinolin-6-yl)methyl]-5-{[6-(3,3-dimethylpyrrolidin-1-yl)pyridin-3-yl]methyl}pyridine-3-carboxamide]
0.0885 µM | 7.55 µM | Nc1nccc2cc(CNC(=O)c3cncc(Cc4ccnc(N5CCC(F)(F)C5)c4)c3)ccc12 [Example 80, N-[(1-Aminoisoquinolin-6-yl)methyl]-5-{[2-(3,3-difluoropyrrolidin-1-yl)pyridin-4-yl]methyl}pyridine-3-carboxamide]
0.674 µM | 9.57 µM | Nc1nccc2cc(CNC(=O)c3cncc(Cc4ccnc(N5CCC(O)C5)c4)c3)ccc12 (stereo not shown) [Example 81, N-[(1-Aminoisoquinolin-6-yl)methyl]-5-{[2-(3-hydroxypyrrolidin-1-yl)pyridin-4-yl]methyl}pyridine-3-carboxamide]
0.106 µM | 2.87 µM | CC1CCN(c2cc(Cc3cncc(C(=O)NCc4ccc5c(N)nccc5c4)c3)ccn2)C1 (stereo not shown) [Example 83, N-[(1-Aminoisoquinolin-6-yl)methyl]-5-{[2-(3-methylpyrrolidin-1-yl)pyridin-4-yl]methyl}pyridine-3-carboxamide]
0.0144 µM | > 40 µM | Cc1cnn(Cc2ccc(Cc3cncc(C(=O)NCc4ccc(CN)cc4C)c3)cc2)c1 [Example 93, N-{[4-(Aminomethyl)-2-methylphenyl]methyl}-5-({4-[(4-methylpyrazol-1-yl)methyl]phenyl}methyl)pyridine-3-carboxamide]
0.242 µM | 3.75 µM | Nc1nccc2cc(CNC(=O)c3cncc(Cc4ccnc(N5CCCC5=O)c4)c3)ccc12 [Example 76, N-[(1-Aminoisoquinolin-6-yl)methyl]-5-{[2-(2-oxopyrrolidin-1-yl)pyridin-4-yl]methyl}pyridine-3-carboxamide]
0.234 µM | 9.85 µM | COC1CCN(c2cc(Cc3cncc(C(=O)NCc4ccc5c(N)nccc5c4)c3)ccn2)C1 (stereo not shown) [Example 88, N-[(1-Aminoisoquinolin-6-yl)methyl]-5-{[2-(3-methoxypyrrolidin-1-yl)pyridin-4-yl]methyl}pyridine-3-carboxamide]
0.683 µM | 10.7 µM | CC1(C)CCCN1c1cc(Cc2cncc(C(=O)NCc3ccc4c(N)nccc4c3)c2)ccn1 [Example 84, N-[(1-Aminoisoquinolin-6-yl)methyl]-5-{[2-(2,2-dimethylpyrrolidin-1-yl)pyridin-4-yl]methyl}pyridine-3-carboxamide]
0.365 µM | > 40 µM | Cc1cnn(Cc2ccc(Cc3cncc(C(=O)NCc4ccc(CN)c(F)c4)c3)cc2)c1 [Example 96, N-{[4-(Aminomethyl)-3-fluorophenyl]methyl}-5-({4-[(4-methylpyrazol-1-yl)methyl]phenyl}methyl)pyridine-3-carboxamide]
0.0678 µM | 4 µM | Nc1nccc2cc(CNC(=O)c3cncc(Cc4ccnc(N5CCC(F)C5)c4)c3)ccc12 (stereo not shown) [Example 82, N-[(1-Aminoisoquinolin-6-yl)methyl]-5-{[2-(3-fluoropyrrolidin-1-yl)pyridin-4-yl]methyl}pyridine-3-carboxamide]
